Paper PMC13233820, “Recruitment of Mre11 to recombination sites during meiosis” (Nature Communications, 2026)

Assays:
Mre11^myc yeast strains = experiment: MMS and CPT sensitivity assay (spotted serial dilutions); assay type: cell-based, Saccharomyces cerevisiae; details: ten-fold serial dilutions on YPD; for Sensitivity of mre11-ΔC49 mutant (in words): mre11-ΔC49 strain; for Sensitivity of mre11-ΔIDR mutant (in words): mre11-ΔIDR strain compared with wild type
Procedure: (§1) Following standard protocols, strains were patched on YPG plates, mated and streaked on YPD plates, and selected diploid colonies grown in liquid YPD at 30 °C, 250 rpm, overnight. For meiotic synchronization, diploid cultures grown overnight in YPD were transferred to YPA (1% yeast extract, 2% peptone, 1% potassium acetate) at OD600 0.2 and grown for 12–14 h at 30 °C, 250 rpm. Once the cultures reached OD600 between 1.2–1.6, cells were washed once with prewarmed sterile water and immediately transferred to sporulation medium supplemented with amino acids (320 µL amino acid complementation media for 100 mL of sporulation media (SPM)) and were kept shaking at 30 °C, 250 rpm during the entire meiotic time-course. For MMS and CPT (Sigma) sensitivity assays, serial dilutions of overnight cultures were spotted on freshly prepared YPD-MMS or YPD-CPT plates containing the indicated percentage of MMS or CPT, respectively. Plates were grown for two days at 30 °C. For immunofluorescence of vegetatively growing cells, overnight cultures were refreshed by diluting to OD600 0.2 and grown for 3-4 hours to reach OD600 1.2–1.4 before subjecting to MMS or MMS followed by 5% 1,6-hexanediol treatment. For 5% 1,6-hexanediol treatment, cells were first converted to spheroplasts and then treated with 5% 1,6-hexanediol for 4-5 min. Spheroplasts were then immediately washed, lysed, and fixed using the protocol described below.

[1] = test system: MMS-induced Mre11^myc foci in vegetatively growing yeast; experiment: Immunofluorescence of MMS-induced Mre11myc foci, vegetative yeast nuclear spreads; assay type: cell-based, Saccharomyces cerevisiae; details: MMS-treated, no hexanediol
Procedure: as §1
Meiotic cultures were harvested 4 h after transfer to SPM, washed with sterile cold water, and resuspended in 1 M sorbitol, 1 × PBS (pH 7), 10 mM DTT, 0.5 mg/ml zymolyase 20 T, and incubated for 30 mins at 30 °C with gentle shaking. […]
Slides were blocked with 90% FBS, 1 × PBS for 1 h at room temperature in a humid chamber and then incubated with primary antibody (mouse mAb anti-myc, 1:200 (2276S, Cell Signaling Technology), rabbit anti-phospho H2A-S129, 1:200 (ab15083, abcam)) diluted in 3% BSA, 1 × PBS in a humid chamber for 2 h at 37 °C or overnight at 4 °C. […] Images were captured on a Zeiss Axio Observer with a 100 ×/1.4 NA oil immersion objective and were analyzed in ImageJ.

MRX condensates = assay type: biochemical, Saccharomyces cerevisiae; details: 500 mM NaCl, brief exposure
Procedure: Experiments were performed without PEG. b, d Effect of DNase I, in the absence of PEG, on (b) Mre11 (n = 9 (no treatment) and 11 (DNase I)) and (d) MRX (n = 9 (no treatment) and 11 (DNase I)) condensates. Condensates were pre-assembled for 20 min with 5.7 nM pUC19 prior to challenge. Quantification represents total foci intensity (green) in a field of view and total number of foci per 1000 µm^2 (magenta). Foci intensity is normalized to the mean intensity of samples with DNA for (a, c) and untreated samples for (b, d). Error bars represent mean ± SD from the indicated (n) fields of view. e, f Effect of the presence of 5% PEG-3350 on (e) Mre11 (n = 12) and (f) MRX (n = 11) condensate formation. Quantification represents total foci intensity (green) in a field of view (normalized to the mean of + PEG images) and total number of foci per 1000 µm^2 (magenta). Error bars represent mean ± SD from the indicated (n) fields of view. g–j Effect of challenge with 5% 1,6-hexanediol and 0.5 M NaCl on (g, h) Mre11 and (i, j) MRX condensates. Condensates were assembled for 20 min prior to challenge and incubated for 15 min and 10 min, respectively, after challenge. […]
(§2) Proteins were diluted to a 10 × stock of their appropriate working concentrations in their respective storage buffers. […] Images were analyzed with ImageJ using a custom-made script. […] Data were analyzed using Graphpad Prism 10.4.0.

Mre11 condensates = assay type: biochemical, Saccharomyces cerevisiae; details: 500 mM NaCl, brief exposure
Procedure: Experiments were performed without PEG. b, d Effect of DNase I, in the absence of PEG, on (b) Mre11 (n = 9 (no treatment) and 11 (DNase I)) and (d) MRX (n = 9 (no treatment) and 11 (DNase I)) condensates. Condensates were pre-assembled for 20 min with 5.7 nM pUC19 prior to challenge. Quantification represents total foci intensity (green) in a field of view and total number of foci per 1000 µm^2 (magenta). Foci intensity is normalized to the mean intensity of samples with DNA for (a, c) and untreated samples for (b, d). Error bars represent mean ± SD from the indicated (n) fields of view. e, f Effect of the presence of 5% PEG-3350 on (e) Mre11 (n = 12) and (f) MRX (n = 11) condensate formation. Quantification represents total foci intensity (green) in a field of view (normalized to the mean of + PEG images) and total number of foci per 1000 µm^2 (magenta). Error bars represent mean ± SD from the indicated (n) fields of view. g–j Effect of challenge with 5% 1,6-hexanediol and 0.5 M NaCl on (g, h) Mre11 and (i, j) MRX condensates. […] In the control reaction, an equivalent volume (1/20) of water was added instead of hexanediol. […]
as §2

[2] = test system: supercoiled pUC19 plasmid DNA; experiment: In vitro condensation assay of MRX complex (fluorescence microscopy); assay type: biochemical; details: in the presence of plasmid DNA
Procedure: Fig. 1 Mre11 and the MRX complex assemble DNA-dependent condensates in vitro. a, c Effect of the presence of plasmid DNA on condensation of (a) Alexa488-labeled Mre11 (n = 11 and 9 fields of view for reactions without and with DNA, respectively) and (c) eGFP-tagged MRX (n = 11 (- DNA) and 9 ( + DNA)). Experiments were performed without PEG. b, d Effect of DNase I, in the absence of PEG, on (b) Mre11 (n = 9 (no treatment) and 11 (DNase I)) and (d) MRX (n = 9 (no treatment) and 11 (DNase I)) condensates. Condensates were pre-assembled for 20 min with 5.7 nM pUC19 prior to challenge. Quantification represents total foci intensity (green) in a field of view and total number of foci per 1000 µm^2 (magenta). Foci intensity is normalized to the mean intensity of samples with DNA for (a, c) and untreated samples for (b, d). […] Quantification represents total foci intensity (green) in a field of view (normalized to the mean of + PEG images) and total number of foci per 1000 µm^2 (magenta). […]
Fig. 2 The C-terminal IDR of Mre11 is required for condensation. a AlphaFold2 predicted model of Mre11 (AF-P32829-F1-v4). […] Quantification represents total fluorescence intensity (green) in a field of view and total number of foci per 1000 µm^2 (magenta). […]

CC[C@@]1(O)C(=O)OCc2c1cc1n(c2=O)Cc2cc3ccccc3nc2-1 [CPT, camptothecin]
Sensitivity of mre11-ΔC49 mutant (in words) (Mre11^myc yeast strains): resistant
Sensitivity of mre11-ΔIDR mutant (in words) (Mre11^myc yeast strains): as resistant to MMS or CPT as wild-type cells

COS(C)(=O)=O [MMS, methylmethanesulfonate]
Percentage of aggregates [1]: 0
Sensitivity of mre11-ΔC49 mutant (in words) (Mre11^myc yeast strains): resistant
Sensitivity of mre11-ΔIDR mutant (in words) (Mre11^myc yeast strains): as resistant to MMS or CPT as wild-type cells

[Cl-].[Na+] [NaCl]
Effect on MRX foci intensity (in words) (MRX condensates): strongly reduced foci intensity
Effect on Mre11 foci intensity (in words) (Mre11 condensates): strongly reduced foci intensity

MRX: Mre11-Rad50-Xrs2 complex, recombinant from Sf9 cells
Condensate formation (in words) [2]: form large clusters visible by fluorescence microscopy
